The target in test [1] is Coagulation factor IX (Homo sapiens, UniProt P00740). The experiment in a line: Binding affinity towards human factor IXa.
Test [2] deals with Coagulation factor X (Homo sapiens, UniProt P00742). Put plainly: Binding affinity towards human factor Xa.

By Ki is commonly meant the equilibrium dissociation constant of an inhibitor or competing ligand from its target. Read a high Ki as lower affinity.

Coagulation factor IX, sequence (P00740 47-191 limits assumed): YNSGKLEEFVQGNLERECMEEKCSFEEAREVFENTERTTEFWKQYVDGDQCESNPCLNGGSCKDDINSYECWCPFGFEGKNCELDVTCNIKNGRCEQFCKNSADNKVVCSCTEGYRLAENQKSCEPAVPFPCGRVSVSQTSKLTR
Coagulation factor IX, sequence (P00740 227-461 limits assumed): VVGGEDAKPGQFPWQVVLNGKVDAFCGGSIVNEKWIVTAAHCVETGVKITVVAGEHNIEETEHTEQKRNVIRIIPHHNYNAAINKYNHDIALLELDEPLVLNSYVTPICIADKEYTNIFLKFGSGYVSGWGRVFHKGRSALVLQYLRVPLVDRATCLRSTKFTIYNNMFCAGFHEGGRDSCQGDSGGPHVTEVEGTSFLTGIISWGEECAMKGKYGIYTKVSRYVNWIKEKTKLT
Coagulation factor X, sequence (P00742 41-179 limits assumed): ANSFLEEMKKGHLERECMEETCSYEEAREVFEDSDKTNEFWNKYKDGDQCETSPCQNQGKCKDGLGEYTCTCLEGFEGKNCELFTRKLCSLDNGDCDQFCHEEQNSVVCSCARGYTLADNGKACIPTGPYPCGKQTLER
Coagulation factor X, sequence (P00742 235-488 limits assumed): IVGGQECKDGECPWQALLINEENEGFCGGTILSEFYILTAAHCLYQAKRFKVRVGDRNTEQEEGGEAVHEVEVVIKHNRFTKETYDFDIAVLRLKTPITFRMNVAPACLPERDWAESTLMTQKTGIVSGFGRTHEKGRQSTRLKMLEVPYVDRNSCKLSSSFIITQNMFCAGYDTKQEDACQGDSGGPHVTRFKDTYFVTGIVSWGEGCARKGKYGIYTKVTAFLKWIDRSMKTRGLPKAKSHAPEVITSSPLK

In turn, `N=C(N)c1cccc(-n2nc(-c3cccnc3)cc2C(=O)Nc2ccc(-n3cnc4ccccc43)cc2)c1` yielded an inhibition constant (Ki) in test [1] of 5.5 nM. As for `N=C(N)c1cccc(-n2nc(C(F)(F)F)cc2C(=O)Nc2ccc(-n3cnc4cccnc43)cc2F)c1`, the Ki in test [2] was 0.02 nM; in test [1], 13 nM. As to `N=C(N)c1cccc(-n2nc(C(F)(F)F)cc2C(=O)Nc2ccc(-n3cnc4cc(C(F)(F)F)ccc43)cc2F)c1`, the Ki in test [1] was 6.4 nM. In test [1], `N=C(N)c1cccc(-n2nc(-c3cccnc3)cc2C(=O)Nc2ccc(-n3cnc4cc(Cl)ccc43)cc2)c1` yielded a Ki of 15 nM. On the same count and under the same terms, the result for `N=C(N)c1cccc(-n2nc(Cn3ccnn3)cc2C(=O)Nc2ccc(-n3cnc4ccccc43)cc2)c1` reads 20 nM. With `N=C(N)c1cccc(-n2nc(C(F)(F)F)cc2C(=O)Nc2ccc(-n3cnc4ncccc43)cc2F)c1`, the values for the inhibitory constant (Ki) in test [2] and in test [1] were 0.02 nM and 7.9 nM, respectively. On to `N=C(N)c1cccc(-n2nc(C(F)(F)F)cc2C(=O)Nc2ccc(-n3ccnc3)cc2)c1`, for which the results for the inhibitory constant (Ki) in test [2] and in test [1] were 0.09 nM and 72 nM, respectively. Consider `N=C(N)c1cccc(-n2nc(Cn3cncn3)cc2C(=O)Nc2ccc(-n3cnc4ccccc43)cc2)c1`, for which the Ki in test [2] worked out at 0.19 nM; in test [1], 44 nM.

On to `N=C(N)c1cccc(-n2nc(C(F)(F)F)cc2C(=O)Nc2ccc(-n3ccc4ccccc43)cc2F)c1`, for which the Ki in test [1] turned out to be 1700 nM. In test [1], `Cc1ccc2c(c1)ncn2-c1ccc(NC(=O)c2cc(C(F)(F)F)nn2-c2cccc(C(=N)N)c2)c(F)c1` showed an inhibitory constant (Ki) of 10 nM. Take `N=C(N)c1cccc(-n2nc(C(F)(F)F)cc2C(=O)Nc2ccc(-n3cnc4cc(Cl)ccc43)cc2F)c1`: the Ki in test [1] was determined as 4.2 nM. For the compound `N=C(N)c1cccc(-n2nc(C(F)(F)F)cc2C(=O)Nc2ccc(-n3cnc4ccccc43)cc2)c1`, the Ki in test [2] was found to be 0.09 nM; in test [1], 11 nM. `N=C(N)c1cccc(-n2nc(Cn3cnnn3)cc2C(=O)Nc2ccc(-n3cnc4ccccc43)cc2)c1` yielded a Ki in test [1] of 11 nM. For `N=C(N)c1cccc(-n2nc(C(F)(F)F)cc2C(=O)Nc2ccc(N3C(=O)N=C4C=CC=CC43)cc2)c1` (stereo unspecified), the inhibition constant Ki in test [2] worked out at 0.05 nM; in test [1], 190 nM.

Take `N=C(N)c1cccc(-n2nc(C(F)(F)F)cc2C(=O)Nc2ccc(-n3cnc4cc(Cl)c(Cl)cc43)cc2F)c1`: the Ki in test [1] is 26 nM. Take `N=C(N)c1cccc(-n2nc(C(F)(F)F)cc2C(=O)Nc2ccc(-n3cnc4ccncc43)cc2F)c1`: the Ki stood at 0.04 nM in test [2] and 7.9 nM in test [1]. In test [1], `N=C(N)c1cccc(-n2nc(C(F)(F)F)cc2C(=O)Nc2ccc(-n3cnc4cc(N)ccc43)cc2F)c1` showed an inhibition constant (Ki) of 11 nM.

As for `Cc1cc(C(=O)Nc2ccc(-n3cnc4ccccc43)cc2)n(-c2cccc(C(=N)N)c2)n1`, in test [1], affinity was put at a Ki of 82 nM. With `Cc1cc(C(=O)Nc2ccc(-c3ccccc3S(N)(=O)=O)cc2)n(-c2cccc(C(=N)N)c2)n1`, the Ki in test [1] is 1900 nM.

As to `N=C(N)c1cccc(-n2nc(C(F)(F)F)cc2C(=O)Nc2ccc(-n3cnc4ccc(Cl)cc43)cc2F)c1`, the Ki in test [1] stood at 5.1 nM. For `N=C(N)c1cccc(-n2nc(Cn3ccnc3)cc2C(=O)Nc2ccc(-n3cnc4ccccc43)cc2)c1`, affinity in test [1] was put at a Ki of 120 nM. This Ki lies about 24-fold higher than the previous one.

As for `N=C(N)c1cccc(-n2nc(C(F)(F)F)cc2C(=O)Nc2ccc(-n3cnc4cnccc43)cc2F)c1`, the Ki in test [2] worked out at 0.03 nM; in test [1], 8 nM. For `N=C(N)c1cccc(-n2nc(C(F)(F)F)cc2C(=O)Nc2ccc(-n3cnc4cc([N+](=O)[O-])ccc43)cc2F)c1`, the Ki in test [1] amounted to 11 nM.

The record behind these values is ChEMBL document CHEMBL1137915, “SAR and factor IXa crystal structure of a dual inhibitor of factors IXa and Xa” (Bioorg Med Chem Lett, 2004).
